Measurements published in PMC9841576, “Characterisation of C101248: A novel selective THIK-1 channel inhibitor for the modulation of microglial NLRP3-inflammasome” (Neuropharmacology, 2023).

Legend:
[1] = test system: NLRP3-dependent release of IL-1β; test: IL-1β release from LPS-primed neonatal microglia exposed to K+-free buffer; type: cell-based, mouse
Description: In brief, brains were dissected by removing meninges, cerebellum, and olfactory bulbs before tissue was finely minced with a scalpel then digested with papain solution for 20 min at 37 °C. Tissue was dissociated and the resulting cell suspension was passed through a 40 μm cell strainer (Greiner Bio-One). Cells were centrifuged at 300 g for 5 min then resuspended in culture medium (DMEM, 10% FBS, 1% PenStrep) and plated in T75 collagen-coated flasks (Greiner Bio-One). A full medium change was caried out on day 2 while a half medium was changed on day 5 in the presence of 5 ng/ml of mouse GM-CSF (R&D Systems). Microglia were shaken off between day 9 and 11 and plated onto poly-D-lysine coated 96-well plates (μclear, Greiner Bio-One) at a density of 20,000 cells/well.
IL-1β from culture supernatants was measured with DuoSet ELISA kit (R&D Systems) following the manufacturer instructions.

THIK-1 = molecular target: T1, THIK-1 (Homo sapiens, UniProt Q9HB14); test: Whole-cell manual patch clamp of HEK-hTHIK-1 cells with rapid perfusion exchanger; type: cell-based; conditions: current at 50 mV
T1 construct: expressed in transfected cells
T1 sequence (Q9HB14 1-408): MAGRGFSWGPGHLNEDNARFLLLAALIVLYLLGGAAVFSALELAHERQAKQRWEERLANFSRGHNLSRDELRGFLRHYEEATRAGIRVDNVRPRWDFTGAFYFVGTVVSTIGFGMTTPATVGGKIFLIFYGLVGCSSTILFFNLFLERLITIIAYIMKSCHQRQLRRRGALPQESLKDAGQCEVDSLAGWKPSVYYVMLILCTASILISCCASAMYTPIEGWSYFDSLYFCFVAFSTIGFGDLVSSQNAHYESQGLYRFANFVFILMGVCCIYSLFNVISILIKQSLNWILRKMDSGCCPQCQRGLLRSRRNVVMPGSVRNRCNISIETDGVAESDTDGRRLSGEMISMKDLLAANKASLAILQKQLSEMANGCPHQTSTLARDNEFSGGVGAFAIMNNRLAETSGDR
Description: Cells were plated onto uncoated, sterile glass coverslips at a density of 1 × 10^6 cells/ml in a droplet of approximately 200 μl and incubated at 37 °C/5% CO2 before use at least 24 h later. Coverslips were transferred to the microscope stage chamber and cells visualised under IR-DIC illumination. The chamber was gravity perfused with a solution containing (in mM): 140 NaCl, 2.5 KCl, 10 HEPES, 1 NaH2PO4.H20, 2 CaCl2, 1 MgCl2, 10 glucose, with pH adjusted to 7.4 using NaOH and osmolarity adjusted to 320 mOsM using sucrose. The chamber was fed from a rapid perfusion exchanger, which continuously perfused square, multi-barrelled glass tubes, using laminar flow. Cells were patched using micropipettes filled with a solution containing (in mM): 125 KCl, 4 NaCl, 1 CaCl2, 10 HEPES, 10 EGTA, 4 MgATP, 2 Na2ATP, 2 MgCl2, 0.5 Na2GTP, pH adjusted to 7.1 with KOH and osmolarity adjusted to 320 mOsm with sucrose. The liquid junction potential was calculated to be 4.8 mV and was not corrected for. […] The current at 50 mV from each sweep was measured and plotted against time. Curves were fitted in GraphPad Prism to a one phase decay [Y= IF(X < X0, Y0, Plateau+(Y0-Plateau)*exp(-K*(X-X0))), where x = time, y = Y0 until X = X0 then decays down to plateau with one phase, K = rate constant]. τ values were calculated to determine the activation time constant.

IC50 ([1]; Mus musculus, wild-type neonatal microglia, LPS-primed, K+-free buffer, read-out: IC50, inhibition of IL-1β release): 106 nM
activation time constant (τ) (THIK-1; 0.5 μM): 217.4 ± 61.4 s
activation time constant (τ) (THIK-1; 5 μM): 83.4 ± 17.2 s
Compound: Nc1nonc1-c1nc2ccccc2n1Cc1ccncc1 [C101248]
reduction of IL-1β release ([1]; 10 μM, wild type neonatal microglia, K+-free buffer): ~55%
effect on K+-free buffer-induced release of IL-1β in THIK-1 KO microglia ([1]; THIK-1 KO neonatal microglia, 10 μM): no impact
